Consider 26 molecules from US20230127046A1, “G9a INHIBITOR” (RIKEN, priority 2019, published 2023).

As a reminder, the IC50 is the point on the concentration scale where inhibition reaches its midpoint.

The assay deals with T1, recombinant human G9a protein (Homo sapiens, UniProt Q96KQ7).
T1 construct: purchased BPS Bioscience Inc. #51001
T1 sequence (Q96KQ7 785-1210 limits assumed): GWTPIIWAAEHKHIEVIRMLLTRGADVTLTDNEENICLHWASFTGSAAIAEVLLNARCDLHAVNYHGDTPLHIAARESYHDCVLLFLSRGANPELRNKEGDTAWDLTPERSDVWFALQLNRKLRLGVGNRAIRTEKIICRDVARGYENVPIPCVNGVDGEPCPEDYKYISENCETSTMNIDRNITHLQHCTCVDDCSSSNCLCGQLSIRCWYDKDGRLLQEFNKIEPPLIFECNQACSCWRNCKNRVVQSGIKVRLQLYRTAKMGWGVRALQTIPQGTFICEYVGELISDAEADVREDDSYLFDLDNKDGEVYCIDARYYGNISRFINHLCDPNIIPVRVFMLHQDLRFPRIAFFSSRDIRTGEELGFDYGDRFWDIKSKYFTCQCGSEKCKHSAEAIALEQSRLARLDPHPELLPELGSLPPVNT
The assay is described as follows: G9a inhibitory activity test (ALPHA). The settings on record: biotinylated histone H3 peptide (1-21), SAM, read-out: Inhibitory activity (G9a IC50 value). The assay is classed as biochemical. How it is done:
The G9a inhibitory activity of each compound was evaluated by measuring the enzymatic activity of G9a by amplified luminescence proximity homogeneous assay (ALPHA). First, 7.5 μL of a dilution of recombinant human G9a protein (BPS Bioscience Inc., #51001) diluted to 0.05 to 0.1 nM with a Tris buffer solution (50 mM Tris-HCl [pH 9.0], 50 mM NaCl, 0.01% Tween-20, 1 mM DTT), and 0.5 μL of the test compound were added to each well of a 384-well microplate (AlphaPlate-384 Shallow Well, PerkinElmer, Inc., #6008359), mixed by vortex, and incubated at room temperature for 10 minutes. 500 nM biotinylated histone H3 peptide (1-21) (AnaSpec Inc., #61702) and 150 μM SAM (Sigma-Aldrich Co. LLC, #A7007) were mixed at 1:1 in advance, and 2 μL of the mixture was added to each well, mixed by vortex, and then incubated at room temperature for 1 hour. AlphaLISA anti-H3K9me2 acceptor beads (PerkinElmer, Inc., #AL117C) and AlphaScreen streptavidin donor beads (PerkinElmer, Inc., #6760002B) were each diluted with an epigenetic buffer (PerkinElmer, Inc., AlphaLISA Epigenetics Buffer Kit #AL008C) to a final concentration of […] after addition. These dilutions were added to the reaction solution in the dark and incubated at room temperature for 1 hour in the dark. Then, measurement was performed using the EnSpire Alpha plate reader (PerkinElmer, Inc., Waltham, Mass., USA). The G9a inhibitory activity of the test compound was calculated as a compound concentration necessary for suppressing G9a enzymatic activity by 50% (IC50 value), by determining the percent inhibition of the compound when the value of a control without the addition of the compound was defined as 0% and the value of a control without the addition of the enzyme was defined as 100%.

Turning to `CCCCC(NC(=O)c1[nH]c2c(c1C)C(=O)CC(C)(C)C2)C(=O)Nc1ccc(F)cc1` (centres unmarked) [Example 1-26], the IC50 is at least 200 nM.
As to `CCCCC(NC(=O)c1[nH]c2c(c1C)C(=O)CC(C)(C)C2)C(=O)Nc1ccccc1C(F)(F)F` (centres unmarked) [Example 1-27], the half-inhibitory concentration (IC50) was at least 200 nM.
With `CCCCC(NC(=O)c1[nH]c2c(c1C)C(=O)CC(C)(C)C2)C(=O)Nc1cccc(C)c1OC` (centres unmarked) [Example 1-28], the IC50 is at least 200 nM.
For the molecule `CCCCC(NC(=O)c1[nH]c2c(c1C)C(=O)CC(C)(C)C2)C(=O)NCc1ccccc1O` (centres unmarked) [Example 1-29], the IC50 was at least 200 nM.
For the molecule `CCCCC(NC(=O)c1[nH]c2c(c1C)C(=O)CC(C)(C)C2)C(=O)Nc1cccc(Cl)c1C` (centres unmarked) [Example 1-30], the IC50 was at least 200 nM.
`CCCCC(NC(=O)c1[nH]c2c(c1C)C(=O)CC(C)(C)C2)C(=O)Nc1cccc2ccccc12` (centres unmarked) [Example 1-31]: the IC50 was at least 200 nM.
For `CCCCC(NC(=O)c1[nH]c2c(c1C)C(=O)CC(C)(C)C2)C(=O)Nc1ccc(OC2CCN(C)CC2)cc1` (centres unmarked) [Example 1-32], the IC50 was under 50 nM.
On to `CCCC[C@H](NC(=O)c1[nH]c2c(c1C)C(=O)CC(C)(C)C2)C(=O)Nc1ccccc1OC` [Example 1-33], for which the IC50 is at least 200 nM.
For `CCCCC(NC(=O)c1[nH]c2c(c1C)C(=O)CC(C)(C)C2)C(=O)Nc1cccc2c1CCC2` (centres unmarked) [Example 1-34], the IC50 is at least 200 nM.
In the case of `CCCCC(NC(=O)c1[nH]c2c(c1C)C(=O)CC(C)(C)C2)C(=O)Nc1cccc2c1OCC2` (centres unmarked) [Example 1-35], the IC50 was at least 200 nM.
For `CCCCC(NC(=O)c1[nH]c2c(c1C)C(=O)CC(C)(C)C2)C(=O)Nc1c(C)cccc1OC` (centres unmarked) [Example 1-36] the value was at least 200 nM; for `CCCCC(NC(=O)c1[nH]c2c(c1C)C(=O)CC(C)(C)C2)C(=O)Nc1ccc(C)cc1OC` (centres unmarked) [Example 1-37], at least 200 nM; for `CCCCC(NC(=O)c1[nH]c2c(c1C)C(=O)CC(C)(C)C2)C(=O)Nc1cc(C)ccc1OC` (centres unmarked) [Example 1-38], at least 200 nM.
As to `CCCCC(NC(=O)c1[nH]c2c(c1C)C(=O)CC(C)(C)C2)C(=O)NCc1ccccc1` (centres unmarked) [Example 1-39], the IC50 is at least 200 nM.
As for `CCCCC(NC(=O)c1[nH]c2c(c1C)C(=O)CC(C)(C)C2)C(=O)NC(C)(C)c1ccccc1` (centres unmarked) [Example 1-40], the figure is at least 200 nM; as for `CCCCC(NC(=O)c1[nH]c2c(c1C)C(=O)CC(C)(C)C2)C(=O)NCc1ccccc1Cl` (centres unmarked) [Example 1-41], at least 200 nM.
For `CCCCC(NC(=O)c1[nH]c2c(c1C)C(=O)CC(C)(C)C2)C(=O)NCc1cccc(Cl)c1` (centres unmarked) [Example 1-42] the value was at least 200 nM.
Consider `CCCCC(NC(=O)c1[nH]c2c(c1C)C(=O)CC(C)(C)C2)C(=O)NCc1ccc(Cl)cc1` (centres unmarked) [Example 1-43], for which the half-inhibitory concentration (IC50) was at least 200 nM.
For the molecule `CCCCC(NC(=O)c1[nH]c2c(c1C)C(=O)CC(C)(C)C2)C(=O)NCc1ccccc1OC` (centres unmarked) [Example 1-44], the IC50 was at least 200 nM.
For `CCCCC(NC(=O)c1[nH]c2c(c1C)C(=O)CC(C)(C)C2)C(=O)NCc1cccc(OC)c1` (centres unmarked) [Example 1-45] the value was at least 200 nM; for `CCCCC(NC(=O)c1[nH]c2c(c1C)C(=O)CC(C)(C)C2)C(=O)NCc1ccc(OC)cc1` (centres unmarked) [Example 1-46], at least 200 nM; for `CCCCC(NC(=O)c1[nH]c2c(c1C)C(=O)CC(C)(C)C2)C(=O)NCc1cccc2ccccc12` (centres unmarked) [Example 1-49], at least 200 nM.
Regarding `CCCCC(NC(=O)c1[nH]c2c(c1C)C(=O)CC(C)(C)C2)C(=O)NCc1ccc2ccccc2c1` (centres unmarked) [Example 1-50], the IC50 was at least 200 nM.
Regarding `CCCCC(NC(=O)c1[nH]c2c(c1C)C(=O)CC(C)(C)C2)C(=O)NCc1ccc(CN(C)C)cc1` (centres unmarked) [Example 1-51], the IC50 was under 50 nM.
For `CCCCC(NC(=O)c1[nH]c2c(c1C)C(=O)CC(C)(C)C2)C(=O)NCc1ccc(C#N)cc1` (centres unmarked) [Example 1-52] the value was at least 200 nM; for `CCCCC(NC(=O)c1[nH]c2c(c1C)C(=O)CC(C)(C)C2)C(=O)NC1(c2ccccc2)CC1` (centres unmarked) [Example 1-53], 50 to 200 nM.
